Key:
NHE3 [1] = target: T1, NHE3 (Homo sapiens, UniProt P48764); experiment: Cell-based assay of NHE-3 activity (pre-incubation inhibition), human; conditions: human Preincubation; for pIC50 / IC50: 0-30 μM test compound
T1 construct: expressed in transfected cells
T1 sequence (P48764 26-834): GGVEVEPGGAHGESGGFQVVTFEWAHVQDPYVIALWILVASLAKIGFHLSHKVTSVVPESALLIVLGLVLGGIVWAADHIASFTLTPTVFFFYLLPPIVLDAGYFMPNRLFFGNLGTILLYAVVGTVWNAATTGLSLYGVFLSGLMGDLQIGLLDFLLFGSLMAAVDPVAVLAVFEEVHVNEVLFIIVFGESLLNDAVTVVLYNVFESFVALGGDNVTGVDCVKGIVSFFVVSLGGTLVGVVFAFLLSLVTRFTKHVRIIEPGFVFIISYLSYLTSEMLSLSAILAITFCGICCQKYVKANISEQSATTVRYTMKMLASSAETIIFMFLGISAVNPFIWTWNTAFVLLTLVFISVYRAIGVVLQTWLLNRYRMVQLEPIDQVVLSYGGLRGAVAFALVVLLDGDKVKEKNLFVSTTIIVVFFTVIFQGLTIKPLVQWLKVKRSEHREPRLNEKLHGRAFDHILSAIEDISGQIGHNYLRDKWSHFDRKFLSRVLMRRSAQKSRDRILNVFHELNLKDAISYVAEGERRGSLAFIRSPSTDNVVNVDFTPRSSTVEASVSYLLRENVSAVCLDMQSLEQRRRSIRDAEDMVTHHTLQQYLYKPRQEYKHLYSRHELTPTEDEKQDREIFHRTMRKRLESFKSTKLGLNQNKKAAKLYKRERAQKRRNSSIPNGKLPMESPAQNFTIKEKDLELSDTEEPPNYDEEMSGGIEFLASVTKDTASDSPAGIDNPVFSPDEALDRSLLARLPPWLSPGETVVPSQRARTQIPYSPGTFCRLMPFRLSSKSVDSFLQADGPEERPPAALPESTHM
T1 sequence (Q99653 2-195 partner limits assumed): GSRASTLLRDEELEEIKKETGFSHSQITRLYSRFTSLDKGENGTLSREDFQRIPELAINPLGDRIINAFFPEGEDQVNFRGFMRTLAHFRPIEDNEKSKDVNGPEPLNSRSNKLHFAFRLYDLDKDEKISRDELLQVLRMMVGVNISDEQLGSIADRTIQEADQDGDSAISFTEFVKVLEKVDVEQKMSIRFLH
Outline: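 PS120 fibroblasts stably expressing human NHE3 and NHERF2, loaded 30 min at 37 °C with 5 μM BCECF-AM in NH4Cl buffer, then acidified 10 min at room temperature in Na+-free buffer with 0–30 μM compound. Initial rate of BCECF fluorescence ratio change (FLIPR) per minute taken as Na+/H+ activity.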

NHE3 [2] = target: T1, NHE3; experiment: Cell-based assay of NHE-3 activity (persistent inhibition), human; conditions: human Persistence, 60 min incubation then washout
Outline: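 PS120 fibroblasts expressing human NHE3 with NHERF2 exposed to 0-30 μM compound for 60 min at RT, then washed out; cells acid-loaded by NH4Cl prepulse with BCECF-AM and Na+-free buffer. Na+-driven pH recovery started 10 min post-washout; initial rate of BCECF ratio change (FLIPR) taken as activity.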

| % inhibition (NHE3 [1]) | pIC50 (NHE3 [1]) | % inhibition (NHE3 [2]) | pIC50 (NHE3 [2]) | IC50 (NHE3 [1]) [µM] | IC50 (NHE3 [2]) [µM] | SMILES |
| --- | --- | --- | --- | --- | --- | --- |
| A (NHE3 < 40%) | A (NHE3 pIC50 < 6) | A (NHE3 < 40%) | A (NHE3 pIC50 < 6) |  |  | N#Cc1cc(Cl)cc2c1C[C@H](N1CCC[C@@H](N)C1)[C@H]2Oc1ccc(S(=O)(=O)NCCOCCOCCNC(=O)NCCCCNC(=O)NCCOCCOCCNS(=O)(=O)c2ccc(O[C@H]3c4cc(Cl)cc(C#N)c4C[C@@H]3N3CCC[C@@H](N)C3)c(F)c2)cc1F [Example 38] |
| A (NHE3 < 40%) | C (NHE3 pIC50 > 7) | A (NHE3 < 40%) | C (NHE3 pIC50 > 7) |  |  | Cc1cc(S(=O)(=O)NCCOCCOCCNC(=O)NCCCCNC(=O)NCCOCCOCCNS(=O)(=O)c2ccc(O[C@H]3c4cc(Cl)cc(C#N)c4C[C@@H]3N3CCC[C@@H](N(C)C)C3)c(C)c2)ccc1O[C@H]1c2cc(Cl)cc(C#N)c2C[C@@H]1N1CCC[C@@H](N(C)C)C1 [Example 39] |
| A (NHE3 < 40%) |  | A (NHE3 < 40%) |  |  |  | CN(C)[C@@H]1CCCN([C@H]2Cc3c(C#N)cc(Cl)cc3[C@@H]2Oc2ccc(S(=O)(=O)NCCOCCOCCNC(=O)NCCCCNC(=O)NCCOCCOCCNS(=O)(=O)c3ccc(O[C@H]4c5cc(Cl)cc(C#N)c5C[C@@H]4N4CCC[C@@H](N(C)C)C4)c(F)c3)cc2F)C1 [Example 40, 3-[2-(2-[2-[(4-[[(1S,2S)-6-Chloro-4-cyano-2-[(3R)-3-(dimethylamino)piperidin-1-yl]-2,3-dihydro-1H-inden-1-yl]oxy]-3-fluorobenzene)sulfonamido]ethoxy]ethoxy)ethyl]-1-[4-([[2-(2-[2-[(4-[[(1S,2S)-6-chloro-4-cyano-2-[(3R)-3-(dimethylamino)piperidin-1-yl]-2,3-dihydro-1H-inden-1-yl]oxy]-3-fluorobenzene)sulfonamido]ethoxy]ethoxy)ethyl]carbamoyl]amino)butyl]urea; bis(trifluoroacetic acid)] |
| C (>70%) | C (NHE3 pIC50 > 7) | C (>70%) | B (NHE3 pIC50 6-7) |  |  | Cc1cc(S(=O)(=O)N2CC[C@H](COCCOCCNC(=O)NCCCCNC(=O)NCCOCCOC[C@H]3CCN(S(=O)(=O)c4ccc(O[C@H]5c6cc(Cl)cc(Cl)c6C[C@@H]5N(C)C)c(C)c4)C3)C2)ccc1O[C@H]1c2cc(Cl)cc(Cl)c2C[C@@H]1N(C)C [Example 44, 3-[2-(2-[[(3S)-1-[(4-[[(1S,2S)-4,6-dichloro-2-(dimethylamino)-2,3-dihydro-1H-inden-1-yl]oxy]-3-methylbenzene)sulfonyl]pyrrolidin-3-yl]methoxy]ethoxy)ethyl]-1-[4-([[2-(2-[[(3S)-1-[(4-[[(1S,2S)-4,6-dichloro-2-(dimethylamino)-2,3-dihydro-1H-inden-1-yl]oxy]-3-methylbenzene)sulfonyl]pyrrolidin-3-yl]methoxy]ethoxy)ethyl]carbamoyl]amino)butyl]urea; bis(trifluoroacetic acid)] |
| C (>70%) |  | C (>70%) |  | < 0.1 | < 0.1 | Cc1cc(S(=O)(=O)N2CC[C@H](COCCOCCNC(=O)NCCCCNC(=O)NCCOCCOC[C@H]3CCN(S(=O)(=O)c4ccc(O[C@H]5c6cc(Cl)cc(C#N)c6C[C@@H]5N(C)C)c(C)c4)C3)C2)ccc1O[C@H]1c2cc(Cl)cc(C#N)c2C[C@@H]1N(C)C [Example 46, 3-[2-(2-[[(3S)-1-[(4-[[(1S,2S)-6-Chloro-4-cyano-2-(dimethylamino)-2,3-dihydro-1H-inden-1-yl]oxy]-3-methylbenzene)sulfonyl]pyrrolidin-3-yl]methoxy]ethoxy)ethyl]-1-[4-([[2-(2-[[(3S)-1-[(4-[[(1S,2S)-6-chloro-4-cyano-2-(dimethylamino)-2,3-dihydro-1H-inden-1-yl]oxy]-3-methylbenzene)sulfonyl]pyrrolidin-3-yl]methoxy]ethoxy)ethyl]carbamoyl]amino)butyl]urea; bis(trifluoroacetic acid)] |
| C (>70%) |  | C (>70%) |  |  |  | Cc1cc(S(=O)(=O)N2CC[C@@H](COCCOCCNC(=O)NCCCCNC(=O)NCCOCCOC[C@@H]3CCN(S(=O)(=O)c4ccc(O[C@H]5c6cc(Cl)cc(C#N)c6C[C@@H]5N(C)C)c(C)c4)C3)C2)ccc1O[C@H]1c2cc(Cl)cc(C#N)c2C[C@@H]1N(C)C [Example 47] |
| B (40-70%) |  | C (>70%) |  | 0.1 to 1 | 0.1 to 1 | Cc1cc(S(=O)(=O)N2CC[C@H](COc3ccnc(CNC(=O)NCCCCNC(=O)NCc4cc(OC[C@H]5CCN(S(=O)(=O)c6ccc(O[C@H]7c8cc(Cl)cc(Cl)c8C[C@@H]7N(C)C)c(C)c6)C5)ccn4)c3)C2)ccc1O[C@H]1c2cc(Cl)cc(Cl)c2C[C@@H]1N(C)C [Example 48, 3-[(4-[[(3S)-1-[(4-[[(1S,2S)-4,6-Dichloro-2-(dimethylamino)-2,3-dihydro-1H-inden-1-yl]oxy]-3-methylbenzene)sulfonyl]pyrrolidin-3-yl]methoxy]pyridin-2-yl)methyl]-1-[4-([[(4-[[(3S)-1-[(4-[[(1S,2S)-4,6-dichloro-2-(dimethylamino)-2,3-dihydro-1H-inden-1-yl]oxy]-3-methylbenzene)sulfonyl]pyrrolidin-3-yl]methoxy]pyridin-2-yl)methyl]carbamoyl]amino)butyl]urea] |
| B (40-70%) | C (NHE3 pIC50 > 7) | B (40-70%) | C (NHE3 pIC50 > 7) |  |  | Cc1cc(S(=O)(=O)N2CC[C@H](COc3ccnc(CNC(=O)NCCCCNC(=O)NCc4cc(OC[C@H]5CCN(S(=O)(=O)c6ccc(O[C@H]7c8cc(Cl)cc(C#N)c8C[C@@H]7N(C)C)c(C)c6)C5)ccn4)c3)C2)ccc1O[C@H]1c2cc(Cl)cc(C#N)c2C[C@@H]1N(C)C [Example 50] |
| B (40-70%) | C (NHE3 pIC50 > 7) | B (40-70%) | C (NHE3 pIC50 > 7) |  |  | Cc1cc(S(=O)(=O)N2CC[C@@H](COc3ccnc(CNC(=O)NCCCCNC(=O)NCc4cc(OC[C@@H]5CCN(S(=O)(=O)c6ccc(O[C@H]7c8cc(Cl)cc(C#N)c8C[C@@H]7N(C)C)c(C)c6)C5)ccn4)c3)C2)ccc1O[C@H]1c2cc(Cl)cc(C#N)c2C[C@@H]1N(C)C [Example 51, 3-[(4-[[(3R)-1-[(4-[[(1S,2S)-6-Chloro-4-cyano-2-(dimethylamino)-2,3-dihydro-1H-inden-1-yl]oxy]-3-methylbenzene)sulfonyl]pyrrolidin-3-yl]methoxy]pyridin-2-yl)methyl]-1-[4-([[(4-[[(3R)-1-[(4-[[(1S,2S)-6-chloro-4-cyano-2-(dimethylamino)-2,3-dihydro-1H-inden-1-yl]oxy]-3-methylbenzene)sulfonyl]pyrrolidin-3-yl]methoxy]pyridin-2-yl)methyl]carbamoyl]amino)butyl]urea] |
| C (>70%) |  | B (40-70%) |  | < 0.1 | < 0.1 | Cc1cc(S(=O)(=O)N[C@H]2CCN(CCOCCNC(=O)NCCCCNC(=O)NCCOCCN3CC[C@H](NS(=O)(=O)c4ccc(O[C@H]5c6cc(Cl)cc(C#N)c6C[C@@H]5N(C)C)c(C)c4)C3)C2)ccc1O[C@H]1c2cc(Cl)cc(C#N)c2C[C@@H]1N(C)C [Example 54, 3-(2-[2-[(3S)-3-[(4-[[(1S,2S)-6-Chloro-4-cyano-2-(dimethylamino)-2,3-dihydro-1H-inden-1-yl]oxy]-3-methylbenzene)sulfonamido]pyrrolidin-1-yl]ethoxy]ethyl)-1-(4-[[(2-[2-[(3S)-3-[(4-[[(1S,2S)-6-chloro-4-cyano-2-(dimethylamino)-2,3-dihydro-1H-inden-1-yl]oxy]-3-methylbenzene)sulfonamido]pyrrolidin-1-yl]ethoxy]ethyl)carbamoyl]amino]butyl)urea] |

From patent publication US11242337B2, “Compounds useful for treating gastrointestinal tract disorders” (Ardelyx, Inc., priority 2017, dated 2022)
